#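 Each compound was tested at five concentrations against cells in 96-well plates for 48 hours. The concentration for 50% growth inhibition is given as GI50.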 The source made the active and inactive calls. Rule as the data show it: active = GI50 up to about 1.1 µM and inactive = higher.
# Tests used:
# Test in all cases: NCI tumour cell line growth inhibition, 48 h
# [1] = tested on: IGROV-1
# [2] = tested on: SNB-75
# [3] = tested on: A498
# [4] = tested on: UACC-257
# [5] = tested on: SK-OV-3
# [6] = tested on: MDA-N
# [7] = tested on: UO-31
# [8] = tested on: SK-MEL-5
# [9] = tested on: HOP-92
# [10] = tested on: SF-539
# [11] = tested on: HCT-116
# [12] = tested on: ACHN
# [13] = tested on: SK-MEL-28
# [14] = tested on: SF-268
# [15] = tested on: U-251
# [16] = tested on: SW-620
# [17] = tested on: CCRF-CEM
# [18] = tested on: LOX IMVI
# [19] = tested on: RPMI-8226
# [20] = tested on: M14
# [21] = tested on: Malme-3M
# [22] = tested on: UACC-62
# [23] = tested on: 786-0
# [24] = tested on: SK-MEL-2
# [25] = tested on: CAKI-1
# [26] = tested on: K562
# [27] = tested on: NCI-H23
# [28] = tested on: BT-549
# [29] = tested on: MOLT-4
# [30] = tested on: SF-295
# [31] = tested on: PC-3
# [32] = tested on: TK-10
# [33] = tested on: HT-29
# [34] = tested on: NCI/ADR-RES
# [35] = tested on: KM12
# [36] = tested on: OVCAR-3
# [37] = tested on: DU-145
# [38] = tested on: MDA-MB-231
# [39] = tested on: NCI-H460
# [40] = tested on: OVCAR-5
# [41] = tested on: NCI-H226
# [42] = tested on: MDA-MB-435
# [43] = tested on: RXF 393
# [44] = tested on: COLO 205
# [45] = tested on: T47D
# [46] = tested on: OVCAR-8
# [47] = tested on: HOP-62
# [48] = tested on: HCT-15
# [49] = tested on: HCC 2998
# [50] = tested on: SR
# [51] = tested on: Hs-578T
# [52] = tested on: A549
# [53] = tested on: NCI-H522
# [54] = tested on: OVCAR-4
# [55] = tested on: MCF7
# [56] = tested on: SNB-19
# [57] = tested on: SN12C
# [58] = tested on: EKVX
# [59] = tested on: HL-60
smiles,measurement,setting,value
N=C(N)N/N=C/c1ccc(O)c(C(=O)O)c1,GI50,[1],> 100 µM (inactive)
same,GI50,[2],3.22 µM (inactive)
same,GI50,[3],> 100 µM (inactive)
same,GI50,[4],> 100 µM (inactive)
same,GI50,[5],> 100 µM (inactive)
same,GI50,[6],> 100 µM (inactive)
same,GI50,[7],> 100 µM (inactive)
same,GI50,[8],> 100 µM (inactive)
same,GI50,[9],> 100 µM (inactive)
same,GI50,[10],> 100 µM (inactive)
same,GI50,[11],> 100 µM (inactive)
same,GI50,[12],> 100 µM (inactive)
same,GI50,[13],> 100 µM (inactive)
same,GI50,[14],> 100 µM (inactive)
same,GI50,[15],> 100 µM (inactive)
same,GI50,[16],> 100 µM (inactive)
same,GI50,[17],> 100 µM (inactive)
same,GI50,[18],> 100 µM (inactive)
same,GI50,[19],> 100 µM (inactive)
same,GI50,[20],> 100 µM (inactive)
same,GI50,[21],99.1 µM (inactive)
same,GI50,[22],> 100 µM (inactive)
same,GI50,[23],> 100 µM (inactive)
same,GI50,[24],> 100 µM (inactive)
same,GI50,[25],> 100 µM (inactive)
same,GI50,[26],> 100 µM (inactive)
same,GI50,[27],> 100 µM (inactive)
same,GI50,[28],> 100 µM (inactive)
same,GI50,[29],> 100 µM (inactive)
same,GI50,[30],> 100 µM (inactive)
same,GI50,[31],> 100 µM (inactive)
same,GI50,[32],> 100 µM (inactive)
same,GI50,[33],32.3 µM (inactive)
same,GI50,[34],> 100 µM (inactive)
same,GI50,[35],> 100 µM (inactive)
same,GI50,[36],> 100 µM (inactive)
same,GI50,[37],> 100 µM (inactive)
same,GI50,[38],> 100 µM (inactive)
same,GI50,[39],> 100 µM (inactive)
same,GI50,[40],> 100 µM (inactive)
same,GI50,[41],> 100 µM (inactive)
same,GI50,[42],> 100 µM (inactive)
same,GI50,[43],> 100 µM (inactive)
same,GI50,[44],> 100 µM (inactive)
same,GI50,[45],> 100 µM (inactive)
same,GI50,[46],> 100 µM (inactive)
same,GI50,[47],> 100 µM (inactive)
same,GI50,[48],> 100 µM
same,GI50,[49],> 100 µM (inactive)
same,GI50,[50],> 100 µM (inactive)
same,GI50,[51],> 100 µM (inactive)
same,GI50,[52],> 100 µM (inactive)
same,GI50,[53],> 100 µM (inactive)
same,GI50,[54],> 100 µM (inactive)
same,GI50,[55],> 100 µM (inactive)
same,GI50,[56],> 100 µM (inactive)
c1ccc2nn(C3CCCCO3)nc2c1 (stereo not given),GI50,[1],> 100 µM (inactive)
same,GI50,[2],> 100 µM (inactive)
same,GI50,[4],> 100 µM (inactive)
same,GI50,[5],> 100 µM (inactive)
same,GI50,[6],> 100 µM (inactive)
same,GI50,[7],> 100 µM (inactive)
same,GI50,[8],> 100 µM (inactive)
same,GI50,[10],> 100 µM (inactive)
same,GI50,[11],> 100 µM (inactive)
same,GI50,[12],> 100 µM (inactive)
same,GI50,[14],> 100 µM (inactive)
same,GI50,[15],> 100 µM (inactive)
same,GI50,[17],> 100 µM (inactive)
same,GI50,[20],> 100 µM (inactive)
same,GI50,[21],> 100 µM (inactive)
same,GI50,[22],> 100 µM (inactive)
same,GI50,[23],> 100 µM (inactive)
same,GI50,[24],> 100 µM (inactive)
same,GI50,[25],> 100 µM (inactive)
same,GI50,[26],> 100 µM (inactive)
same,GI50,[27],> 100 µM (inactive)
same,GI50,[28],> 100 µM (inactive)
same,GI50,[29],> 100 µM (inactive)
same,GI50,[30],> 100 µM (inactive)
same,GI50,[31],> 100 µM (inactive)
same,GI50,[32],> 100 µM (inactive)
same,GI50,[33],> 100 µM (inactive)
same,GI50,[34],> 100 µM (inactive)
same,GI50,[57],> 100 µM (inactive)
same,GI50,[35],> 100 µM (inactive)
same,GI50,[36],> 100 µM (inactive)
same,GI50,[37],> 100 µM (inactive)
same,GI50,[58],> 100 µM (inactive)
same,GI50,[38],> 100 µM (inactive)
same,GI50,[39],> 100 µM (inactive)
same,GI50,[40],> 100 µM (inactive)
same,GI50,[41],> 100 µM (inactive)
same,GI50,[42],> 100 µM (inactive)
same,GI50,[43],> 100 µM (inactive)
same,GI50,[44],> 100 µM (inactive)
same,GI50,[45],> 100 µM (inactive)
same,GI50,[46],> 100 µM (inactive)
same,GI50,[47],> 100 µM (inactive)
same,GI50,[48],> 100 µM
same,GI50,[49],> 100 µM (inactive)
same,GI50,[50],> 100 µM (inactive)
same,GI50,[51],> 100 µM (inactive)
same,GI50,[52],> 100 µM (inactive)
same,GI50,[53],> 100 µM (inactive)
same,GI50,[54],> 100 µM (inactive)
same,GI50,[55],> 100 µM (inactive)
same,GI50,[56],> 100 µM (inactive)
COc1ccc(C(=O)N/N=C2\C(=O)c3c(C)cc(C)cc3CC2(C)C)cc1,GI50,[1],16.1 µM (inactive)
same,GI50,[2],21.4 µM (inactive)
same,GI50,[3],19.9 µM (inactive)
same,GI50,[4],29.8 µM (inactive)
same,GI50,[5],29.2 µM (inactive)
same,GI50,[6],19.3 µM (inactive)
same,GI50,[8],16.7 µM (inactive)
same,GI50,[9],14.9 µM (inactive)
same,GI50,[10],20.5 µM (inactive)
same,GI50,[11],17.1 µM (inactive)
same,GI50,[12],24.1 µM (inactive)
same,GI50,[13],19.7 µM (inactive)
same,GI50,[14],17.3 µM (inactive)
same,GI50,[15],17.1 µM (inactive)
same,GI50,[16],20.8 µM (inactive)
same,GI50,[17],24.3 µM (inactive)
same,GI50,[18],17.7 µM (inactive)
same,GI50,[19],17.1 µM (inactive)
same,GI50,[20],19.8 µM (inactive)
same,GI50,[21],14.9 µM (inactive)
same,GI50,[22],15.1 µM (inactive)
same,GI50,[23],18.6 µM (inactive)
same,GI50,[24],18.9 µM (inactive)
same,GI50,[25],36 µM (inactive)
same,GI50,[26],16.7 µM (inactive)
same,GI50,[27],29.5 µM (inactive)
same,GI50,[28],18.6 µM (inactive)
same,GI50,[29],11.5 µM (inactive)
same,GI50,[30],19.6 µM (inactive)
same,GI50,[31],22.2 µM (inactive)
same,GI50,[32],54.2 µM (inactive)
same,GI50,[33],18.4 µM (inactive)
same,GI50,[34],22 µM (inactive)
same,GI50,[57],18.4 µM (inactive)
same,GI50,[35],19.1 µM (inactive)
same,GI50,[36],15.6 µM (inactive)
same,GI50,[37],24.2 µM (inactive)
same,GI50,[58],22.5 µM (inactive)
same,GI50,[38],19.7 µM (inactive)
same,GI50,[39],25.6 µM (inactive)
same,GI50,[40],21 µM (inactive)
same,GI50,[41],22.3 µM (inactive)
same,GI50,[42],17.9 µM (inactive)
same,GI50,[43],16.6 µM (inactive)
same,GI50,[44],21.8 µM (inactive)
same,GI50,[45],13.7 µM (inactive)
same,GI50,[46],20.9 µM (inactive)
same,GI50,[47],18 µM (inactive)
same,GI50,[59],18.3 µM (inactive)
same,GI50,[48],22.8 µM
same,GI50,[50],18.5 µM (inactive)
same,GI50,[51],16.3 µM (inactive)
same,GI50,[52],19.4 µM (inactive)
same,GI50,[53],15.3 µM (inactive)
same,GI50,[54],27 µM (inactive)
same,GI50,[55],16.6 µM (inactive)
same,GI50,[56],27.4 µM (inactive)
